Results as given in patent US20250090498A1, “TREATMENT OF PRIMARY CTLA-4 CHECKPOINT RELATED IMMUNODEFICIENCIES” (ADIENNE PHARMA & BIOTECH SA, priority 2023, published 2025).
Each block holds one molecule with its values, some of them ahead of it.

How the values were obtained:
[1] = preliminary pharmacokinetics in serum after Eudragit-formulated 3-IAld (90% 3-IAld/10% 13C8-labeled 3-IAld), mass spectrometry; type: in vivo
Protocol: Primary pharmacodynamics studies have been performed. The mode of action of 3-IAld occurs upon binding to AhR, both in vitro and in vivo. In vitro, 3-IAld induced luciferase activity in the H1L1.1c2 cell line containing a stably-transfected AhR-responsive firefly luciferase at the dose range […] (Zelante et al, 2013). […] Preliminary pharmacokinetics data have been obtained by administration of Eudragit-formulated 3-IAld in the composition 90% 3-IAld/10% 13C8-labeled 3-IAld and targeted/untargeted analysis by mass spectrometry in serum at different times (30 minutes (min), 1 hour (h), 2 h, 4.5h, 6 h, 24h). […] The presence of indole-3-formic acid was also confirmed with labelled 3-IAld (FIG. 13E), showing a similar kinetics and a peak level of about 25 μM at 30 min.

[2] = single-dose pharmacokinetic study in healthy C57BL/6 mice, tissues and serum by mass spectrometry
Protocol: A single-dose pharmacokinetic (PK) study was performed on healthy C57BL/6 mice to compare 1ME3CA and 3-IAld at 0.36 mg/topo dose. Untreated naïve mice were used as the control. […] Blood, obtained by cardiac puncture and collected into EDTA-containing tubes, and organs (brain, lung, intestine, liver and kidney) were assessed. All samples were stored at −80° C. until use. To evaluate 1ME3CA and 3-IAld for functional activity, the expression of AhR-downstream genes were concomitantly evaluated in these mice.

[3] = molecular target: T1, AhR (Homo sapiens, UniProt P35869); assay: Cyp1A1 induction in HepG2 liver cancer cell line; type: cell-based; parameters: endogenous in cells; host or cells: HepG2, A549, Calu-3, CaCo-2; settings: for induction of the AhR activation marker Cyp1A1 (mRNA): between 1 and 100 μM
T1 sequence (P35869 11-848): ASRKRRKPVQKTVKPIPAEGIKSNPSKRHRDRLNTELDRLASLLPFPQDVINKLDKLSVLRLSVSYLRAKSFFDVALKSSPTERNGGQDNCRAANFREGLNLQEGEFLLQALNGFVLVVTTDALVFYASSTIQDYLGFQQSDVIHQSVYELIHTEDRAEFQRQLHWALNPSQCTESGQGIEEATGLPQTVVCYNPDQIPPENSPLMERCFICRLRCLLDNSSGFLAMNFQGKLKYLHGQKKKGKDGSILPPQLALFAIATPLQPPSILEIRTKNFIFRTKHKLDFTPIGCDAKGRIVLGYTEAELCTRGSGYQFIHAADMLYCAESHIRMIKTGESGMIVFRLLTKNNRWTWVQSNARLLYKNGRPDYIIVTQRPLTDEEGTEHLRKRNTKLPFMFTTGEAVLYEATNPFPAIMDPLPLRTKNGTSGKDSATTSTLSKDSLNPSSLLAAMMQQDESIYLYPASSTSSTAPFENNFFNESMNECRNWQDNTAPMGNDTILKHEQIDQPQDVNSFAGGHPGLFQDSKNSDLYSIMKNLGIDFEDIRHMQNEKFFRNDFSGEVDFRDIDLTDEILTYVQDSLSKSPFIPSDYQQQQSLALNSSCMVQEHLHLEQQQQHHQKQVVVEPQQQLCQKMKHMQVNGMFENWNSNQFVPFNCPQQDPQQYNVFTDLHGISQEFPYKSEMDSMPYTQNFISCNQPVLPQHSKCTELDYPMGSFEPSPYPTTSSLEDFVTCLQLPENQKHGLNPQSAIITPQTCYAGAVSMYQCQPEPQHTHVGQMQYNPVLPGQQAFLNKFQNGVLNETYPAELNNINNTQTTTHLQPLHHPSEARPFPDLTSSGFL
Description: FIG. 14 graphically represents Cypla1 mRNA fold increase with the addition of 3-IAld or Ox-3-IAld.

serum level of methylated forms of indole-3-formic acid at 1 hour ([1]; 1 hour after 3-IAld): reduced levels
peak serum level of methylated forms of indole-3-formic acid ([1]; at 30 minutes after 3-IAld): about 150 nM
Compound: Cn1c(C(=O)O)cc2ccccc21 [1-Methylindole-2-carboxylic acid]

serum level of methylated forms of indole-3-formic acid at 1 hour ([1]; in vivo): reduced levels
Compound: COC(=O)c1c[nH]c2ccccc12 [Methyl indole-3-carboxylate]

concentrations in all organs ([2]; after enteric 1ME3CA 18 mg/Kg): basal
clearance of metabolites from the organs ([2]; after oral 3-IAld 18 mg/Kg): rapid clearance
presence as metabolite of 3-IAld in serum and other tissues ([2]; after oral 3-IAld 18 mg/Kg): main metabolite
pharmacological activity in vitro [3]: pharmacologically active
Compound: O=C(O)c1c[nH]c2ccccc12 [indole-3-formic acid]
induction of the AhR activation marker Cyp1A1 (mRNA) [3]: induce the AhR activation marker Cyp1A1 in a dose-dependent manner
induction of the AhR activation marker Cyp1A1 (mRNA) ([3]; listed as Ox-3-IAld): induction of the AhR activation marker Cyp1A1 in a dose-dependent manner
